From ChEMBL document CHEMBL5352454, “Design, synthesis, and evaluation of tricyclic compounds containing phenyl-tetrazole as XOR inhibitors” (Eur J Med Chem, 2023)
Calls of active or inactive are those of the source. The rule behind the calls is not given here.

How the values were obtained:
[1] = target: T1, Xanthine dehydrogenase/oxidase (Homo sapiens, UniProt P47989); assay: Inhibition of XOR (unknown origin) using xanthine as substrate incubated for 3 mins followed by xanthine addition by spectroscopy based analysis
T1 sequence (P47989 whole entry): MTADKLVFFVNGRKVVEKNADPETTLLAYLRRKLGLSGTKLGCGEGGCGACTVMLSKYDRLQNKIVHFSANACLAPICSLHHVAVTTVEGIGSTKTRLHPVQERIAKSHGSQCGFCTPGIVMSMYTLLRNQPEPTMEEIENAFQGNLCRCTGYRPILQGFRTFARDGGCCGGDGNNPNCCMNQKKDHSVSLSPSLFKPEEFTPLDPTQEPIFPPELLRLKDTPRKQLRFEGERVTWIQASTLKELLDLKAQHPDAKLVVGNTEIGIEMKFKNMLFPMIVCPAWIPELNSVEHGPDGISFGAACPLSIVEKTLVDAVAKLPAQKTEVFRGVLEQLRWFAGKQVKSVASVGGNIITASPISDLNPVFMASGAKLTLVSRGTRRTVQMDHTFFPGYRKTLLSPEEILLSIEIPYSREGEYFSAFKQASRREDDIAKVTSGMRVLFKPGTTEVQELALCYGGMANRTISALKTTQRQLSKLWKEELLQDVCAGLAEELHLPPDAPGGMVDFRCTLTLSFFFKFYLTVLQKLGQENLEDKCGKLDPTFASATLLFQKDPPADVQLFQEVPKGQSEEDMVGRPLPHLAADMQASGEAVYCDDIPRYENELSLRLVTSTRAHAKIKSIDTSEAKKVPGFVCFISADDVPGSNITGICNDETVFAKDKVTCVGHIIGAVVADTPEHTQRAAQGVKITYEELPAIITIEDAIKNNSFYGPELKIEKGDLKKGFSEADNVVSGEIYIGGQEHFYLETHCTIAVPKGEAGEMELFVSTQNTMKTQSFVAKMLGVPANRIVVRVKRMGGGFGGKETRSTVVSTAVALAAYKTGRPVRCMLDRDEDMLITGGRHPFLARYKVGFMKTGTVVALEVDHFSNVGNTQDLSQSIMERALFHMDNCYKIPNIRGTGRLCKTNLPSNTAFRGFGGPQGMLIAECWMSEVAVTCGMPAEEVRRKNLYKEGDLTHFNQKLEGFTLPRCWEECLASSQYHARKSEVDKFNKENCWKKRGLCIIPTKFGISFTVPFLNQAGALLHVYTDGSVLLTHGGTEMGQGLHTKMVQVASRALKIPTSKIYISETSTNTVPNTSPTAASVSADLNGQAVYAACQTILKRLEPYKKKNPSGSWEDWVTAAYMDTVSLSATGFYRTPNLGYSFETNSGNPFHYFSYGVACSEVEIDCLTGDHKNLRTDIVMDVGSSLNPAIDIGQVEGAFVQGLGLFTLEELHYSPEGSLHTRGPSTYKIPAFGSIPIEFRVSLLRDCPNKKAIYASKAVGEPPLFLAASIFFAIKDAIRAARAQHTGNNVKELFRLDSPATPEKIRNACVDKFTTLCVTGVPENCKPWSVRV

[2] = target: T1, Xanthine dehydrogenase/oxidase; assay: Inhibition of XOR (unknown origin) using xanthine as substrate at 10 uM incubated for 3 mins followed by xanthine addition by spectroscopy based analysis relative to control; conditions: 0.05 h
[3] = tested on: Mus musculus; assay: Hypouricemic activity in hypoxanthine/potassium oxonate-induced hyperuricemia mouse model assessed as reduction in uric acid level at 5 mg/kg, IG measured after 3 to 5 hrs; format: functional, organism-based; conditions: time 3-5 hrs
[4] = tested on: Mus musculus; assay: Hypouricemic activity in hypoxanthine/potassium oxonate-induced hyperuricemia mouse model assessed as reduction in serum uric acid level at 5 mg/kg, IG measured upto 9 hrs; format: functional, organism-based
[5] = tested on: Mus musculus; assay: Hypouricemic activity in hypoxanthine/potassium oxonate-induced hyperuricemia mouse model assessed as reduction in uric acid level at 5 mg/kg, IG measured after 3 hrs; format: functional, organism-based

Structure (SMILES) | IC50 [1] [nM] | also measured
O=Cc1cc(Cl)ccc1-c1ccc(-c2nnn[nH]2)cc1 | 540 | 
COc1ccc(-c2ccc(-c3nnn[nH]3)cc2)cc1 | 1390 | 
c1cc(-c2ccc(-c3nnn[nH]3)cc2)co1 |  | inhibition at 10 µM [2]: < 50%
CCOc1ccccc1-c1ccc(-c2nnn[nH]2)cc1 |  | inhibition at 10 µM [2]: < 50%
O=Cc1ccccc1-c1ccc(-c2nnn[nH]2)cc1 | 490 | 
COc1cccc(-c2ccc(-c3nnn[nH]3)cc2)c1 | 2090 | 
CC(C)(C)c1ccc(-c2ccc(-c3nnn[nH]3)cc2)cc1 | 4230 | 
c1ncc(-c2ccc(-c3nnn[nH]3)cc2)cn1 | 920 | 
c1cc(-c2ccc(-c3nnn[nH]3)cc2)n[nH]1 |  | inhibition at 10 µM [2]: < 50%
c1cc(-c2ccc(-c3nnn[nH]3)cc2)cs1 |  | inhibition at 10 µM [2]: < 50%
COc1ccccc1-c1ccc(-c2nnn[nH]2)cc1 | 1690 | 
O=C(O)c1cc(-c2ccc(-c3nnn[nH]3)cc2)ccc1Cl | 720 | 

The next lines start with results.

IC50 [1] [nM] | Structure (SMILES) | also measured
40 | COc1ccc(NC(=O)c2ccc(-c3nnn[nH]3)cc2)cc1 | 
160 | CCCOc1ccc(NC(=O)c2ccc(-c3nnn[nH]3)cc2)cc1 | 
55 | CC(C)Oc1ccc(NC(=O)c2ccc(-c3nnn[nH]3)cc2)cc1 | Activity [3]: Active; Activity [4]: Active
180 | CC(=O)c1ccc(-c2ccc(-c3nnn[nH]3)cc2)cc1 | 
440 | CCOc1ccc(-c2ccc(-c3nnn[nH]3)cc2)cc1 | 
410 | O=C(O)c1ccc(-c2ccc(-c3nnn[nH]3)cc2)cc1Cl | 
29.3 | CCOc1ccc(NC(=O)c2ccc(-c3nnn[nH]3)cc2)cc1 | Activity [3]: Active; Activity [4]: Active
26.3 | O=C(Nc1ccc(Cl)cc1)c1ccc(-c2nnn[nH]2)cc1 | Activity [3]: Active; Activity [4]: Active
370 | CCOc1ccc(CNC(=O)c2ccc(-c3nnn[nH]3)cc2)cc1 | 
6.91 | Cc1nc(-c2ccc(OCC(C)C)c(C#N)c2)sc1C(=O)O [FEBUXOSTAT] | Activity [5]: Active
